Results published in ChEMBL document CHEMBL1156488, “Selective induction of chemotherapy resistance of mammary tumors in a conditional mouse model for hereditary breast cancer” (2007).
The source made the active and inactive calls. No cut-off for these calls is given here.

Assays:
Mus musculus [1] = assay: Antitumor activity in Brca1 and p53 deficient K14cre mouse hereditary breast cancer model at 5 mg/kg, iv; format: functional, organism-based; set-up: dose 5 mg/kg
[2] = Antitumor activity in Brca1 and p53 deficient mouse mammary tumor cell xenografted mouse hereditary breast cancer model assessed as median survival at 5 mg/kg, iv; format: functional
Mus musculus [3] = assay: Antitumor activity in Brca1 and p53 deficient K14cre mouse hereditary breast cancer model at 25 mg/kg, iv; format: functional, organism-based; set-up: dose 25 mg/kg
[4] = Antitumor activity in Brca1 and p53 deficient mouse mammary tumor cell xenografted mouse hereditary breast cancer model assessed as median survival at 25 mg/kg, iv; format: functional
Mus musculus [5] = assay: Antitumor activity in doxorubicin-sensitive Brca1 and p53 deficient mouse mammary tumor cell xenografted mouse hereditary breast cancer model at 25 mg/kg, iv; format: functional, organism-based; set-up: dose 25 mg/kg
T*23 = assay: Antitumor activity in doxorubicin-resistant Brca1 and p53 deficient mouse mammary tumor T*23 cell xenografted mouse hereditary breast cancer model at 25 mg/kg, iv; format: functional, organism-based; set-up: dose 25 mg/kg

Compound	Activity (Mus musculus [1])	Survival [2]	Activity (Mus musculus [3])	Survival [4]	Activity (Mus musculus [5])	Activity (T*23)
COc1cccc2c1C(=O)c1c(O)c3c(c(O)c1C2=O)C[C@@](O)(C(=O)CO)C[C@@H]3O[C@H]1C[C@H](N)[C@H](O)[C@H](C)O1 [DOXORUBICIN]	Active	63 days	–	–	–	–
CC(=O)O[C@@]12CO[C@@H]1C[C@H](O)[C@@]1(C)C(=O)[C@H](O)C3=C(C)[C@@H](OC(=O)[C@H](O)[C@@H](NC(=O)OC(C)(C)C)c4ccccc4)C[C@@](O)([C@@H](OC(=O)c4ccccc4)[C@H]21)C3(C)C.O.O.O [DOCETAXEL]	–	–	Active	44 days	Active	inactive
